What was measured:
[1] = test system: basophils; assay: BAT (CD63) on blood of dosed ISM patients; assay type: in vivo, human
Protocol: The BAT was conducted as set forth in Santos (2021) Allergy, 76:2420-2432. Blood from six healthy donors was drawn and Compound 128 was added at various concentrations (10 μM, 3.16 μM, 1 μM, 0.3 μM, 0.1 μM, 0.03 μM, or 0 μM). Blood samples were gently rocked at room temperature for 2 hours, 24 hours, or 48 hours. The BAT assay using the Flow Cast Basophil Activation Kit (Buhlmann Diagnostics; Catalog #B-CCR-STCON) was then conducted following manufacturer instructions by (1) stimulating the blood with anti-FcεR stimulation control in stimulation buffer with IL-3 and staining cells for CCR3 and CD63 for 15 minutes at 37° C., (2) lysing red blood cells and fixing cells with Lysing Reagent at room temperature for 10 minutes, (3) washing cells with Wash Buffer, and (4) acquiring data on a flow cytometer. Activated basophils were defined as CCR3+, low side scatter and CD63+. Percent of activated basophils was calculated as number of activated basophils over the total number of basophils. A four-parameter logistic regression was applied to determine the EC50 and EC90. […]
The BAT assay measuring CD63 used the Flow Cast Basophil Activation Kit method and percent activated basophils were calculated as described in Example 1. Percent inhibition of CD63 activation was calculated as (100−(Sample condition−Unstimulated DMSO control)/(Stimulated DMSO control−Unstimulated DMSO control)×100).

[2] = molecular target: BTK (Homo sapiens, UniProt Q06187); assay: pBTK test in ISM-like (+SCF) human mast cells; assay type: cell-based; design: endogenous in cells; host or cells: Primary human mast cells differentiated from bone marrow CD34+ cells of healthy donors, cultured with SCF; settings: six healthy donors, treated two hours
Protocol: (§1) Human mast cells were derived from bone marrow CD34+ cells from six healthy donors for up to eight weeks by culturing CD34+ cells in StemSpan SFEM II (Stem Cell Technologies) supplemented with stem cell factor (SCF; 100 ng/mL; R&D System), IL-6 (R&D Systems), IL-3 (R&D Systems) and 1% penicillin/streptomycin (P/S; Gibco) for the first 10 days and in StemSpan SFEM II supplemented with SCF and IL-6 and 1% P/S for the remaining time in culture. […] Supernatant was collected and histamine levels were measured using a Histamine ELISA kit (Eagle Biosciences). […] Percent of activated mast cells was calculated as number of activated mast cells over the total number of mast cells.
Human mast cells were differentiated from bone marrow CD34+ cells from six healthy donors, cultured and sensitized as set forth in Example 4. […] The median fluorescence intensity of phosphorylated BTK was measured. CD63 and histamine levels in these cells were measured and percent activated mast cells were calculated as set forth in Example 4. The percent of stimulated control for pBTK, activated mast cells (CD63+) and histamine levels was calculated. […]

[3] = test system: IL-8, MCP-1, MIP-1a, IL-13 and IL-10; assay: Antigen-induced cytokine production in ISM-like and healthy mast cell conditions; assay type: cell-based, human; settings: ISM-like mast cells; treated two hours, antigen four hours
Protocol: as §1
Human mast cells were differentiated from bone marrow CD34+ cells from two healthy donors, cultured and sensitized in ISM-like and healthy mast cell conditions as set forth in Example 4, treated with Compound 128 for two hours and stimulated with antigen for four hours. Supernatant was collected and cytokine levels were measured using the BD Cytometric Bead Array (CBA) human soluble protein master buffer kit (Becton Dickinson) and BD CBA human soluble protein flex sets for IL-8, MCP-1, MIP-1a, IL-13 and IL-10 (Becton Dickinson). […]

BTK, sequence (Q06187 whole entry): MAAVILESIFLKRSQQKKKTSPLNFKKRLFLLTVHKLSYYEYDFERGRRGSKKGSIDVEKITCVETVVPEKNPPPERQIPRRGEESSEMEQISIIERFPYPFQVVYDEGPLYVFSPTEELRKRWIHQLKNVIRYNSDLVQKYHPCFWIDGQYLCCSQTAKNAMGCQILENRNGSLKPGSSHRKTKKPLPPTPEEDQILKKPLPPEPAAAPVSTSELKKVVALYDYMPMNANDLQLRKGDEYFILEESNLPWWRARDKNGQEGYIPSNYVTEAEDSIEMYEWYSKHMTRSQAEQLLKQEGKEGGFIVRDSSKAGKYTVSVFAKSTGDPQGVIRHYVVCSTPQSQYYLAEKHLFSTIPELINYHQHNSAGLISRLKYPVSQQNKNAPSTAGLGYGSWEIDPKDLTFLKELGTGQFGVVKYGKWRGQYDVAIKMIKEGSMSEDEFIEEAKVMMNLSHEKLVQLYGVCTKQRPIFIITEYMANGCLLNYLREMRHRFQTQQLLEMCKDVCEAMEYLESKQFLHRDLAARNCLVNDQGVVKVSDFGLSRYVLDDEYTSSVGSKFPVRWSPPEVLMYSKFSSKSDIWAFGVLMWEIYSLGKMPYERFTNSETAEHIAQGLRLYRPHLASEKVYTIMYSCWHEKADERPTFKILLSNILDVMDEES

Structure (SMILES): C=CC(=O)N1CCC(F)(CNc2ncnc(N)c2-c2ccc(Oc3ccccc3)cc2)CC1 [Compound 128, 1-(4-(((6-amino-5-(4-phenoxyphenyl)pyrimidin-4-yl)amino)methyl)-4-fluoropiperidin-1-yl)prop-2-en-1-one]
- inhibition of basophil activation ([1]; ISM patients, 100 mg or 150 mg BID): effective in inhibiting basophil activation
- percent inhibition of CD63 activation of basophils, dose dependence ([1]; ISM patients, 50, 75, 100 or 150 mg BID): greater inhibition of basophil activation is achieved in ISM patients with greater dosing
- inhibition of IgE-mediated BTK phosphorylation [2]: potently inhibits
- IgE-mediated cytokine production [3]: inhibited
